Here are results for eight compounds from PubChem BioAssay (NCI).

Common to all, as to experiment: growth of human tumour cells (NCI), 48 h
Test [1] deals with K-562 leukemia.
Test [2] deals with HOP-92 NSCLC.
For test [3], the system named is CAKI-1 renal.
The subject of test [4] is IGROV1 ovarian.
Test [5] deals with M14 melanoma.
Test [6] relates to DU-145 prostate.
Test [7] relates to MDA-N.
For test [8], the system named is SK-MEL-28 melanoma.
Test [9] has as its system MCF7 breast.
The subject of test [10] is OVCAR-8 ovarian.
Test [11] concerns COLO 205 colon.
Test [12] concerns OVCAR-4 ovarian.
The subject of test [13] is CCRF-CEM leukemia.
The test system of test [14] is UACC-257 melanoma.
Test [15] deals with HT29 colon.
Test [16] relates to BT-549 breast.
Test [17] concerns MDA-MB-231 breast.
Test [18] concerns LOX IMVI melanoma.
Test [19] has as its system SF-295 CNS.
Test [20] deals with SF-539 CNS.

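48-hour exposure; five concentrations; linearly interpolated endpoints. TGI: concentration producing complete growth inhibition.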

`CN=C(Nc1ccc(OC)c2ccccc12)SC`: the TGI in test [1], in test [2], in test [3], in [4], in test [5] and in test [6] was more than 10 µM each time. Moreover, the TGI in [7], in test [8], in test [9], in [10], in [11] and in test [12] was more than 10 µM each time. The TGI in [13], in test [14], in test [15], in test [16], in test [17] and in test [18] was more than 10 µM in each case. In addition, the TGI in test [19] and in test [20] was more than 10 µM throughout.
For the compound `COc1ccc(-c2c(-c3ccccc3)c(C)c3ccccn23)cc1`, the TGI in [1], in test [2], in [3], in test [4], in test [5] and in test [6] was more than 100 µM throughout. In addition, the TGI in test [7], in test [8], in test [9], in [10], in [11] and in test [12] was more than 100 µM throughout. Moreover, the TGI in test [13], in [14], in test [15], in [16], in [17] and in test [18] was more than 100 µM throughout. Moreover, the TGI in [19] and in test [20] was more than 100 µM each time.
For the compound `CC(C)=NOC(=O)CNC(=O)C(Cc1ccccc1)NC(=O)C(C)NC(=O)OC(C)(C)C` (stereo not given), the TGI in test [1], in test [2], in test [3], in test [4], in [5] and in [6] was more than 100 µM throughout. Besides, the TGI in test [7], in test [8], in test [9], in [10], in test [11] and in test [12] was more than 100 µM in each case. The TGI in [13], in [14], in test [15], in test [16], in test [17] and in test [18] was more than 100 µM each time. Moreover, the TGI in test [19] and in [20] was more than 100 µM each time.
Consider `COc1ccc(-c2oc3cc(OC)c(OC)c(O)c3c(=O)c2OC)cc1`, for which the TGI is more than 100 µM in [1]; 33.8 µM in test [2]; more than 100 µM in test [3]; 56.8 µM in [4]; more than 100 µM in test [5]; more than 100 µM in test [6]. Also, the TGI in test [7], in [8], in [9], in test [10], in test [11] and in [12] was more than 100 µM throughout. In addition, the TGI in test [13] was more than 100 µM; in test [14], more than 100 µM; in test [15] it was more than 100 µM; in [16], 42 µM; in test [17], 50 µM; in test [18], more than 100 µM. In addition, the TGI in [19] is 46.9 µM; in test [20], more than 100 µM.
With `Nc1ccc(-c2nc3ccc(F)cc3s2)cc1Cl`, the TGI in [1], in test [2], in test [3], in test [4], in test [5] and in test [6] was more than 100 µM each time. The TGI in [7], in test [8], in test [9], in test [10], in test [11] and in [12] was more than 100 µM throughout. Moreover, the TGI was more than 100 µM in test [13]; more than 100 µM in test [14]; more than 100 µM in test [15]; more than 100 µM in test [16]; 99.5 µM in test [17]; more than 100 µM in test [18]. Besides, the TGI in test [19] is more than 89.2 µM; in [20], more than 100 µM.
On to `O=C(Cn1cc(Br)c(=O)[nH]c1=O)c1ccc(-c2ccccc2)cc1`, for which the TGI in test [1] was more than 17.3 µM; in [2], 82.5 µM; in [3], more than 41.8 µM; in test [4] it was more than 33.1 µM; in test [5], more than 24.1 µM; in [6], more than 30.7 µM. Moreover, the TGI in test [7] was more than 100 µM; in [8] it was more than 19.9 µM; in test [9], more than 100 µM; in test [10] it was 76.5 µM; in [11], more than 49.6 µM; in [12] it was more than 100 µM. In addition, the TGI in [13] was more than 20.2 µM; in test [14] it was more than 100 µM; in test [15], more than 100 µM; in test [16] it was more than 23.8 µM; in test [17], more than 52 µM; in test [18], more than 27.4 µM. The TGI in [19] was more than 100 µM; in test [20], more than 19.8 µM.
Consider `N#Cc1c(Cl)c2cccnc2n2c1nc1ccccc12`, for which the TGI is 6.05 µM in [1]; 3.91 µM in test [2]; 3.71 µM in [3]; 4.94 µM in test [4]; more than 21.4 µM in test [5]; 4.03 µM in test [6]. Besides, the TGI was 15.7 µM in [7]; 9.75 µM in test [8]; more than 25.1 µM in test [9]; 3.77 µM in [10]; 4.02 µM in test [11]; 5.29 µM in test [12]. For the same compound, the TGI turned out to be 4.02 µM in test [13]; 7.5 µM in [14]; 3.61 µM in test [15]; 9.28 µM in test [16]; 5.38 µM in test [17]; 3.51 µM in [18]. For the same compound, the TGI is 35.9 µM in [19] and 5.4 µM in test [20].
For `O=[N+]([O-])c1ccc(C2ON=C(c3ccccc3)N2C23CC4CC(CC(C4)C2)C3)cc1` (stereo not given), the TGI in test [1], in [2], in test [3], in test [4], in test [5] and in test [6] was more than 10 µM in each case. The TGI in test [7], in test [8], in test [9], in [10], in [11] and in [12] was more than 10 µM throughout. The TGI in [13], in [14], in test [15], in test [16], in test [17] and in test [18] was more than 10 µM in each case. The TGI in test [19] and in test [20] was more than 10 µM throughout.
